Measurements taken from patent publication US8476307B2, “Pharmaceutical composition based on idazoxan, salts, hydrates or polymorphs thereof” (Pierre Fabre Medicament, priority 2003, dated 2013).
Structures can show the parent of a compound that is named as a salt. Where two headings read alike, the source gives them in different places.

Assays:
[1] = Pharmacokinetics of the enantiomers of idazoxan in healthy male subjects; details: for AUC0-∞ of R(−) idazoxan / AUC0-∞ of S(+) idazoxan / CLtot/F of R(−) idazoxan / Cmax of R(−) idazoxan / Cmax of S(+) idazoxan / Tmax of R(−) idazoxan / Tmax of S(+) idazoxan / t1/2 of R(−) idazoxan / t1/2 of S(+) idazoxan / CLtot/F of S(+) idazoxan: single administration of the racemate (20 mg) or of the enantiomer alone (10 mg)
Protocol: Young healthy male subjects were allocated at random to receive a single dose of each of the following substances on one occasion: 20 mg of idazoxan racemate (polymorph of form I); 10 mg of the R(−) enantiomer; 10 mg of the S(+) enantiomer.

[2] = Solubility in various solvents
[3] = ICH criteria
α2-adrenoreceptors = assay: α2-adrenoreceptor binding in rat cortical tissue; details: initially, without preincubation
Protocol: (§1) The binding values of the α2-adrenoreceptors for the two enantiomers were evaluated using rat cortical tissue. In addition, the biological activity was evaluated by the inhibition of the hypothermia induced by guanabenz in mice.

[4] = system: hypothermia induced by guanabenz; assay: Inhibition of the hypothermia induced by guanabenz; assay type: in vivo, mice; details: initially, without preincubation
Protocol: as §1

Compound | AUC0-∞ of R(−) idazoxan [1] | AUC0-∞ of S(+) idazoxan [1] | CLtot/F of R(−) idazoxan [1] | Cmax of R(−) idazoxan [1] | Cmax of S(+) idazoxan [1] | Tmax of R(−) idazoxan [1] | Tmax of S(+) idazoxan [1] | t1/2 of R(−) idazoxan [1] | t1/2 of S(+) idazoxan [1] | CLtot/F of S(+) idazoxan [1] | further results
c1ccc2c(c1)OC[C@@H](C1=NCCN1)O2 [R(−) Idazoxan] | 43 ± 19 ng·h/mL | 14 ± 8 ng·h/mL | 230 ± 92 L/h | 10.2 ± 3.9 ng/mL | 1.6 ± 1.0 ng/mL | 2.5 ± 0.5 h | 4.0 ± 0 h | 3.1 ± 0.6 h | 4.1 ± 0.5 h |  | 
Cl.c1ccc2c(c1)OCC(C1=NCCN1)O2 (stereo not drawn) [Form I] | 58 ± 23 ng·h/mL | 44 ± 21 ng·h/mL | 170 ± 76 L/h | 11.9 ± 4.6 ng/mL | 8.3 ± 3.6 ng/mL | 2.1 ± 0.7 h | 2.1 ± 0.7 h | 3.3 ± 0.4 h | 3.3 ± 0.4 h | 245 ± 136 L/h | solubility in water ([2]; batches of the form I): Freely soluble; solubility in ethanol ([2]; batches of the form I, listed as 503): Soluble; photostability [3]: no decomposition; Long-term stability (25° C./60% RH, listed as 500): 24 months; Long-term stability (25° C./60% RH, listed as 501): 24 months; Long-term stability (25° C./60% RH, listed as 503): 9 months; Long-term stability (25° C./60% RH, listed as 504): 9 months; Long-term stability (25° C./60% RH, listed as OP2): 24 months; Long-term stability (30° C./70% RH, listed as 500): 24 months; Long-term stability (30° C./70% RH, listed as 501): 24 months; Long-term stability (30° C./70% RH, listed as 503): 6 months; Long-term stability (30° C./70% RH, listed as 504): 6 months; Long-term stability (30° C./70% RH, listed as OP2): 24 months; Long-term stability (40° C./75% RH, listed as 500): 6 months; Long-term stability (40° C./75% RH, listed as 501): 6 months; Long-term stability (40° C./75% RH, listed as 503): 6 months; Long-term stability (40° C./75% RH, listed as 504): 6 months; Long-term stability (40° C./75% RH, listed as OP2): 9 months
c1ccc2c(c1)OCC(C1=NCCN1)O2 (stereo not drawn) [Idazoxan hydrochloride, 2-(2-imidazolinyl)-1,4-benzodioxane hydrochloride] |  |  |  |  |  |  |  |  |  |  | solubility in ethanol ([2]; powder): soluble to fairly soluble; solubility in methanol ([2]; powder): readily soluble; solubility in water ([2]; powder): readily soluble
c1ccc2c(c1)OC[C@H](C1=NCCN1)O2 [S(+)Idazoxan] | 11 ± 6 ng·h/mL | 27 ± 13 ng·h/mL |  | 1.3 ± 0.7 ng/mL | 7.2 ± 5.1 ng/mL | 3.7 ± 0.5 h | 2.1 ± 0.8 h | 3.7 ± 0.4 h | 7.8 ± 0.5 h | 397 ± 205 L/h | binding affinity relative to the R(−) form (α2-adrenoreceptors): ten times greater; effectiveness in the antagonism of the hypothermia relative to the R(−) form [4]: 15 times; apparent clearance relative to the R(−) enantiomer ([1]; human, in vivo): approximately 1.5 times; distribution relative to the R(−) enantiomer ([1]; human, in vivo): approximately 1.5 times; t1/2 for conversion of S(+) to R(−) ([1]; in vivo): 4 h
